Experimental data from patent US20240197728A1, “METHODS AND PHARMACEUTICAL COMPOSITIONS FOR TREATING REFRACTORY EPILEPSY” (INSERM (INSTITUT NATIONAL DE LA SANTÉ ET DE LA RECHERCHE …, priority 2021, published 2024).

Assays:
[1] = tested on: extrasynaptic GABAA receptors; test: GABAA receptor-mediated currents evoked by focal isoguvacine or RubiGABA uncaging; type: cell-based, rat
[2] = molecular target: T1, recombinant Flag-tagged KCC2 (Rattus norvegicus, UniProt Q63633); test: Quantum dot-based single particle tracking of KCC2 membrane lateral diffusion; type: cell-based; settings: vs DMSO
T1 construct: expressed in transfected cells; host or cells: primary rat hippocampal neurons, transfected at DIV 13-14 with Transfectin
T1 sequence (Q63633 1-1116 isoform Q63633-2): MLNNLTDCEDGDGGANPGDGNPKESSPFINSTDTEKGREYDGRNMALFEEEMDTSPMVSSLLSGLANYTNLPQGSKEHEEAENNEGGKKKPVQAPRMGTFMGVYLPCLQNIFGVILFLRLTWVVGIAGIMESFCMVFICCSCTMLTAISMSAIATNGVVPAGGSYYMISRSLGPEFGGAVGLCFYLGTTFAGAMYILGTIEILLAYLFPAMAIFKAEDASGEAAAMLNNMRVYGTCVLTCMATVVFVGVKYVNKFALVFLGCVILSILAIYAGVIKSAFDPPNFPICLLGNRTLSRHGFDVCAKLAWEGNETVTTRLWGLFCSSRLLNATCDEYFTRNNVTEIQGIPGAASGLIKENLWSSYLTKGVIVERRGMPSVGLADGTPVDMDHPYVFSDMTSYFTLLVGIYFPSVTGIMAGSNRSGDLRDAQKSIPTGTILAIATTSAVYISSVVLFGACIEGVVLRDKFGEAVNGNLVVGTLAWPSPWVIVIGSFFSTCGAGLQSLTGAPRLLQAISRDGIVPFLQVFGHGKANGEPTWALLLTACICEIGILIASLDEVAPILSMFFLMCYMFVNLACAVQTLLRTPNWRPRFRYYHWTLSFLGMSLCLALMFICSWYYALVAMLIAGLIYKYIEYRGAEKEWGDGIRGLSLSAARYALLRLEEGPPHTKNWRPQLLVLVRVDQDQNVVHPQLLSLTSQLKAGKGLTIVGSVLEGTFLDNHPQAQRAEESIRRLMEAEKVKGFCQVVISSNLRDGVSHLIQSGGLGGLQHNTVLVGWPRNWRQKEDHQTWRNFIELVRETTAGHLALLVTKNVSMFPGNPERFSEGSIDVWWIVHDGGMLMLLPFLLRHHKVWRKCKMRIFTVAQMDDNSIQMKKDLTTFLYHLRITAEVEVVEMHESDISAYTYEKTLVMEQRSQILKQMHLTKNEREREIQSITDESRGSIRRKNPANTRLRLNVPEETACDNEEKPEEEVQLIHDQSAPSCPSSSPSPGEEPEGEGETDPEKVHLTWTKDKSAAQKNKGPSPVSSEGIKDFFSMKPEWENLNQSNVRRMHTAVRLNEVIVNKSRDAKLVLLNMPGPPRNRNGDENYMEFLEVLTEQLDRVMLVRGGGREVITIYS
Description: For all experiments on hippocampal cultures, neurons were pre-incubated for 2 hours with either DMSO, PCPZ or CLP257 in a CO2 incubator set at 37° C. Drugs were added directly to the culture medium. For electrophysiology experiments, neurons were also recorded in presence of these drugs in the bath. For biochemistry experiments on rat hippocampo-cortical slices, slices were incubated with either DMSO (vehicle), CLP257, PCPZ, WNK463 or sodium orthovanadate for 2 hours in interface chambers set at 37° C. For human tissue experiments, slices were pre-incubated with either DMSO, CLP257 or PCPZ for 2 hours in interface chambers set at 37° C. and then also recorded in presence of these compounds.
For single-particle-tracking experiments, a previously described KCC2-Flag construct was used. […] All constructs were sequenced by Beckman Coulter Genomics (Hope End, Takeley, U.K). Neuronal transfections were performed at DIV 13-14 using Transfectin (BioRad), according to manufacturer's instructions (DNA:transfectin ratio 1 μg:3 μl), with 1-1.5 μg of plasmid DNA per 20 mm well. Experiments were performed 7-10 days post-transfection.
Neurons were stained as previously described. Briefly, cells were incubated for 6 min at 37° C. with a mouse anti-Flag antibody (mouse, 1:300, Sigma-Aldrich), washed and incubated for 6 min at 37° C. with a biotinylated Fab goat anti-mouse antibody (1:300; Jackson Immuno Research) in imaging medium. After washes, cells were incubated for 1 min with streptavidin-coated quantum dots (QDs) emitting at 655 nm (1 nM; Invitrogen) supplemented with PBS ([…]; Invitrogen) and 10% Casein (v/v) (Sigma).
Cells were imaged using an Olympus IX71 inverted microscope equipped with a 60× objective (NA 1.42; Olympus) and a 120 W Mercury lamp (X-Cite 120Q, Lumen Dynamics). QD real time recordings (integration time of 30 ms over 1200 consecutive frames) were acquired with an ImagEM EMCCD camera and MetaView software (Meta Imaging 7.7). Cells were imaged within 45 min following appropriate drugs pre-incubation.
QD tracking and trajectory reconstruction were performed with homemade Matlab routines, as described. For each imaged neuron, one or two dendritic subregions were quantified. Mean square displacement (MSD) over time plots were calculated as described and diffusion coefficients (D) were calculated by fitting the first four points without origin of the MSD vs. time curves with the equation: MSD(nτ)=4Dnτ+b, where b is a constant reflecting the spot localization accuracy. The explored area of each trajectory was defined as the MSD value of the trajectory at two different time intervals of at 0.42 and 0.45 s.

Row | Structure (SMILES) | decay time constant of GABAA receptor-mediated currents ([1]; acute 10 μM PCPZ, isoguvacine 100 μM, control 127.66±10.23) | amplitude of GABAA receptor-mediated currents ([1]; acute 10 μM PCPZ, isoguvacine 100 μM, control 150.73±17.50) | change of KCC2 diffusion coefficient, extrasynaptic ([2]; 10 μM PCPZ, 2 h) | change of KCC2 diffusion coefficient, synaptic ([2]; 10 μM PCPZ, 2 h) | change of KCC2 explored area, extrasynaptic ([2]; 10 μM PCPZ, 2 h) | change of KCC2 explored area, synaptic ([2]; 10 μM PCPZ, 2 h) | decay time constant of GABAA receptor-mediated currents ([1]; 100 μM CLP257, RubiGABA 30 μM, control 124.39±9.12) | amplitude of GABAA receptor-mediated currents ([1]; 100 μM CLP257, RubiGABA 30 μM, control 164.70±4.56) | change of KCC2 diffusion coefficient, extrasynaptic ([2]; 100 μM CLP257, 2 h) | change of KCC2 diffusion coefficient, synaptic ([2]; 100 μM CLP257, 2 h) | change of KCC2 explored area, extrasynaptic ([2]; 100 μM CLP257, 2 h) | change of KCC2 explored area, synaptic ([2]; 100 μM CLP257, 2 h)
1 | CN1CCN(CCCN2c3ccccc3Sc3ccc(Cl)cc32)CC1 [PCPZ, prochlorperazine] | 130.81 ± 10.48 ms | 157.51±25.46 pA | −36.54±14.91% | −26.22±14.00% | −39.70±17.18% | −30.632±25.44% | – | – | – | – | – | –
2 | O=C1N=C(N2CCCCN2)S/C1=C\c1ccc(F)cc1O [CLP257, (5Z)-5-[(4-Fluoro-2-hydroxyphenyl)methylene]-2-(tetrahydro-1-(2H)-pyridazinyl)-4(5H)-thiazolone] | – | – | – | – | – | – | 218.22 ± 21.05 ms | 162.04±6.62 pA | −20.74±4.85% | +9.39±11.21% | −25.14±2.73% | +4.93±19.40%
